Our source for the IC50 values is patent publication US9884816B2, “Sulforaphane-derived compounds, production method thereof and the medical, food and cosmetic use of same” (Consejo Superior De Investigaciones Científicas (CSIC), priority 2012, dated 2018).

Assay [1] deals with A-549 (human lung adenocarcinoma). The assay is described as follows: Cytotoxicity curve, A-549 cell line. The assay is classed as cell-based. The following applies: mean ± SEM, at least 3 independent experiments. On the procedure: (§1) FIG. 5. Curve of cytotoxicity of the compounds 15S, and 15R, at four different concentrations ([…]) in comparison with Sigma-Aldrich® sulphoraphane at five different concentrations ([…]) for the cell lines A-549 (human lung adenocarcinoma) and MRC-5 (fetal lung fibroblasts), showing IC50 for all the products in each of the cell lines used in the test, expressed as mean±standard error (SEM) of all the tests conducted. Each diagram represents at least 3 independent experiments and both within them and for each value of IC50, the result of statistical analysis is indicated for the t-test with the p-value. The t-test indicates whether two values have a significant difference from the statistical standpoint. A p-value above 0.05 is not regarded as statistically significant and is not represented by any symbol, a p-value below 0.05 indicates statistical significance and is indicated with an asterisk (*), and then if p is below 0.01 it is indicated with two asterisks, and with three if it is below 0.001.

Assay [2] relates to MRC-5 (fetal lung fibroblasts). Nature of the assay: Cytotoxicity curve, MRC-5 cell line. The assay is classed as cell-based. To be noted: mean ± SEM, at least 3 independent experiments. The procedure:
as §1

In the case of `C[S@@+]([O-])CCCCN=C=S` (racemic) [SF, (Rs)-1-isothiocyanato-4-(methylsulphinyl)-butane], the IC50 in assay [1] stood at 19.6 ± 2.27 µM; in assay [2], 46.6 ± 2.19 µM.

Take `C[S@+]([O-])CCOCCOCCN=C=S` [SF 15Ss, (S)-(+)-8-Isothiocyanato-3,6-dioxaoctanylmethyl sulphoxide]: the IC50 turned out to be 22.7 ± 0.69 µM in assay [1] and 58.3 ± 6.54 µM in assay [2].

For `C[S+]([O-])CCCCN=C=S` (centres unmarked) [SF Sigma ®], the half-maximal inhibitory concentration (IC50) in assay [1] came to 16.5 ± 3.05 µM; in assay [2], 30.5 ± 2.02 µM.

Consider “(R)-(−)-8-Isocyanato-3,6-dioxaoctanylmethyl sulphoxide [SF 15Rs]”, for which the IC50 is 29.4 ± 3.89 µM in assay [1] and 67.3 ± 6.25 µM in assay [2].
